Measurements taken from publication PMC3094488 (European journal of pharmacology, 2011).
Values joined by “and” are separate entries in the source; they are usually repeats but may differ in a detail not shown here. Equal values may be shown once.

What was measured:
CB1 receptors [1] = molecular target: CB1 receptors (Rattus norvegicus, UniProt P20272); test: CB1 receptor internalization in HEK293 cells stably expressing CB1; format: cell-based; settings: for plateau / maximal internalization in time course: 100 nM drug, up to 6 hours; for plateau / maximal internalization in time course / maximal internalization (Emax): mean ± S.E.M.; for maximal internalization (Emax) / EC50: 2 hour treatment; for maximal internalization (Emax): at 1 μM; for EC50: read-out: EC50 of CB1 internalization, mean (95% CI)
CB1 receptors (Rattus norvegicus, UniProt P20272), sequence (P20272 whole entry): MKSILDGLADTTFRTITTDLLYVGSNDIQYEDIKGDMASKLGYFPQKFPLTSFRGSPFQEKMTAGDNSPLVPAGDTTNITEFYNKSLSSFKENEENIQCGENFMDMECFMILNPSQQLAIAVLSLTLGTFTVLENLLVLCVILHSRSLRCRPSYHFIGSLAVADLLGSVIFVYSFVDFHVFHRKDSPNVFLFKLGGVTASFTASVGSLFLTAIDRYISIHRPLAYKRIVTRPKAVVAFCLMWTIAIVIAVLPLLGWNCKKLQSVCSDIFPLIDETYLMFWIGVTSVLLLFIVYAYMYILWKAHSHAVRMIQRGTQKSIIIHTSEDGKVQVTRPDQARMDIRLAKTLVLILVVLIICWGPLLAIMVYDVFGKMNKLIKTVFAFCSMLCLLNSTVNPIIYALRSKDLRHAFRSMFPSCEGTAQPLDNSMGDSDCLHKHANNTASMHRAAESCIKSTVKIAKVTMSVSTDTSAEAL

CB1 receptors [2] = molecular target: T1, CB1 receptors (Mus musculus, UniProt P47746); settings: at 1 μM; ref Atwood et al., 2010; cited from earlier work
T1 sequence (P47746 whole entry): as the sequence (P20272 whole entry) above, with E95D counted along it

CB1 receptors [3] = molecular target: T1, CB1 receptors; test: Inhibition of EPSCs; format: cell-based; settings: for maximal suppression of EPSC, % of baseline: at 1 μM, mean ± S.E.M.; for IC50: read-out: IC50 of EPSC suppression, autaptic hippocampal neurons, mean (95% CI)

Q: Which “plateau / maximal internalization in time course” value (“plateau / maximal internalization” below) (CB1 receptors [1]) does the source give for `CCCCCCCC(C)(C)c1ccc([C@@H]2CCC[C@@H](O)C2)c(O)c1` [trans-CP47,497-C8] here?
A: 47.7 ± 3.1 % of basal surface levels

Q: What about the “maximal internalization (Emax)” value (CB1 receptors [1]) of the same molecule?
A: 54.9 ± 3.7 % of basal surface levels

Q: What about the EC50 (CB1 receptors [1]) of the same molecule?
A: 2.7 nM

Q: With `CCCCCn1cc(C(=O)c2cccc3ccccc23)c2ccccc21` [JWH018] as the molecule, how does the “plateau / maximal internalization” value (CB1 receptors [1]) read?
A: 50.7 ± 2.6 % of basal surface levels

Q: And the “maximal internalization (Emax)” value (CB1 receptors [1])?
A: 45.2 ± 2.0 % of basal surface levels

Q: What about the EC50 (CB1 receptors [1]) of the same molecule?
A: 10.1 nM

Q: What about the “maximal decrease of EPSC magnitude” value (CB1 receptors [2]) of the same molecule?
A: 48.0%

Q: For `CCCCCCCC(C)(C)c1ccc([C@H]2CCC[C@@H](O)C2)c(O)c1` [CP47,497-C8], which “plateau / maximal internalization” value (CB1 receptors [1]) is on record?
A: 51.4 ± 2.2 % of basal surface levels

Q: And the “maximal internalization (Emax)” value (CB1 receptors [1])?
A: 52.7 ± 4.3 % of basal surface levels

Q: And the EC50 (CB1 receptors [1])?
A: 4.4 nM

Q: What about the “maximal suppression of EPSC, % of baseline” value (CB1 receptors [3]) of the same molecule?
A: 51.6 ± 8.0 % of baseline and 51.6 % of baseline

Q: And the IC50 (CB1 receptors [3])?
A: 15.4 nM

Q: What does the source list for `CCCCn1cc(C(=O)c2cccc3ccccc23)c2ccccc21` [JWH073]?
A: plateau / maximal internalization in time course (CB1 receptors [1]): 57.5 ± 3.1 % of basal surface levels; maximal internalization (Emax) (CB1 receptors [1]): 61.2 ± 2.5 % of basal surface levels; EC50 (CB1 receptors [1]): 45.6 nM; maximal suppression of EPSC, % of baseline (CB1 receptors [3]): 31.5 ± 4.0 % of baseline; IC50 (CB1 receptors [3]): 49.4 nM

Q: With `CCCCCCCC(C)(C)c1ccc([C@H]2CCC[C@@H](O)C2)c(O)c1` [cis-CP47,497-C8] as the molecule, how does the “plateau / maximal internalization” value (CB1 receptors [1]) read?
A: 48.4 ± 2.4 % of basal surface levels

Q: And the “maximal internalization (Emax)” value (CB1 receptors [1])?
A: 53.8 ± 2.4 % of basal surface levels

Q: And the EC50 (CB1 receptors [1])?
A: 1.9 nM
